Tests used:
[1] = free drug level (fu) in human plasma; format: in vitro ADME
Text: (§1) As the only drug that interact with mGlu4 is free drug, the compounds of the present invention have unexpectedly exceptional profiles as putative drug candidates.

[2] = in vitro DMPK: rat intrinsic and predicted hepatic clearance; format: in vitro ADME; settings: for Rat CLINT: in vitro, unit assumed; for Rat CLHEP: predicted
Text: as §1

human mGluR4 = target: T1, human mGluR4 (Homo sapiens, UniProt Q14833); assay: human mGluR4 potentiation assay, CHO cells transfected with human mGluR4, Ca2+-sensitive dye; format: cell-based; settings: human mGlu4; read-out: hmGlu4 EC50
T1 construct: expressed in transfected cells; host or cells: CHO cells
T1 sequence (Q14833 33-912): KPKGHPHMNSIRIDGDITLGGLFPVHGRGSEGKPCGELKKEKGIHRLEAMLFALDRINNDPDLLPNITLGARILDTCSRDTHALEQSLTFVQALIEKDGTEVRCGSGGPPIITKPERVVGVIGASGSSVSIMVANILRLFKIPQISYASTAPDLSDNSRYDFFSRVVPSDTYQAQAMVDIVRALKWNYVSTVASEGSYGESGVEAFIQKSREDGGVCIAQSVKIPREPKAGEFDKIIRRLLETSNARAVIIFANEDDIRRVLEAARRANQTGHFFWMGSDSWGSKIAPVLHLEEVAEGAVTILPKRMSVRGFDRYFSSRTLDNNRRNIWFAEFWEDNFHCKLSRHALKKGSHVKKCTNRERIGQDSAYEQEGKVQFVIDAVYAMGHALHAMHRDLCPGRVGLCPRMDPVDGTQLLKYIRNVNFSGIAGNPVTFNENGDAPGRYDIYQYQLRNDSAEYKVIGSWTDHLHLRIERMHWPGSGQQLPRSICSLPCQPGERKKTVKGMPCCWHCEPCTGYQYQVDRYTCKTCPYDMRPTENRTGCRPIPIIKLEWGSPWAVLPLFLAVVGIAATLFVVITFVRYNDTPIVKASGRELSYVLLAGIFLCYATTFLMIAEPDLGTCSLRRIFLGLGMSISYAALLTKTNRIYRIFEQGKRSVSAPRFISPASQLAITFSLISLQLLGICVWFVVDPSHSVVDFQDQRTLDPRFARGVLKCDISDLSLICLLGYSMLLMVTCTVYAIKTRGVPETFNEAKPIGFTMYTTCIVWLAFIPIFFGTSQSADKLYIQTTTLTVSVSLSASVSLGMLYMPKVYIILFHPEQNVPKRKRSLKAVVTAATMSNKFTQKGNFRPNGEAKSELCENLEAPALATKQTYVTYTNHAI
Experimental: The disclosed compounds and compositions can be evaluated for their ability to act as a potentiator of metabotropic glutamate receptor activity, in particular mGluR4 activity, by any suitable known methodology known in the art. For example, Chinese Hamster Ovary (CHO) cells transfected with human mGluR4 or HEK cells co-transfected with rat mGluR4 and the G-protein regulated Inwardly Rectifying Potassium channel (GIRK) were plated in clear bottom assay plates for assay in a Hamamatsu FDSS Fluorometric Plate Reader. The cells were loaded with either a Ca2+-sensitive fluorescent dye or the thallium responsive dye and the plates were washed and placed into a suitable kinetic plate reader. For human mGluR4 assays, a fluorescence baseline was established for 3-5 seconds, the disclosed compounds were then added to the cells, and the response in cells was measured. Approximately two and a half minutes later, a concentration of mGluR4 orthosteric agonist (e.g. glutamate or L-AP4) eliciting approximately 20% (EC20) of the maximal agonist response was added to the cells, and the response was measured. Two minutes later, a concentration of mGluR4 agonist (e.g. glutamate or L-AP4) eliciting 80% (EC80) of the maximal agonist response was added to the cells, and the response was measured. For rat mGluR4/GIRK experiments, a baseline was established for approximately five seconds, disclosed compounds were added, and either an EC20 or EC80 concentration of agonist was added approximately two and one half minutes later. Potentiation of the agonist response of mGluR4 by the disclosed compounds was observed as an increase in response to the EC20 concentration of agonist in the presence of compound compared to the response to agonist in the absence of compound. Similarly, antagonism of the agonist response of mGluR4 by the disclosed compounds was observed as a decrease in response to the EC80 concentration of agonist in the presence of compound compared to the response to agonist in the absence of compound.
The above described assay operated in two modes. In the first mode, a range of concentrations of the disclosed compounds are added to cells, followed by a single fixed concentration of agonist. If the compound acts as a potentiatior, an EC50 value for potentiation and a maximum extent of potentiation by the compound at this concentration of agonist is determined by non-linear curve fitting. If the compound acts as a noncompetitive antagonist, an IC50 value is determined by non-linear curve fitting. In the second mode, several fixed concentrations of the disclosed compounds are added to various wells on a plate, followed by a range in concentrations of agonist for each concentration of disclosed compound. The EC50 values for the agonist at each concentration of compound are determined by non-linear curve fitting. A decrease in the EC50 value of the agonist with increasing concentrations of the sample compound (a leftward shift of the agonist concentration-response curve) is an indication of the degree of mGluR4 potentiation at a given concentration of the sample compound. A decrease in the maximal response of the agonist with increasing concentrations of the sample compounds, with or without a rightward shift in agonist potency, is an indication of the degree of noncompetitive antagonism at mGluR4. The second mode also indicates whether the sample compounds also affect the maximum response to mGluR4 to agonists.

[3] = in vitro DMPK: human intrinsic and predicted hepatic clearance; format: in vitro ADME; settings: for Human CLINT: in vitro, unit assumed; for Human CLHEP: predicted human clearance, human hepatic blood flow 20 mL/min/kg
Text: as §1

[4] = rat brain homogenate binding (BHB); format: in vitro ADME; settings: read-out: Rat BHB fu
Text: as §1

[5] = free drug level (fu) in rat plasma; format: in vitro ADME
Text: as §1

mGlu4 = mGlu4 (UniProt Q14833); settings: read-out: mGlu4 PAM EC50

`CS(=O)(=O)N1CCN(C(=O)c2nccc3cc(Nc4n[nH]c5cccnc45)ccc23)CC1` [Example 6] showed a fraction unbound [1] of 0.134, a Rat CLINT [2] of 230 mL/min/kg and a Rat CLHEP [2] of 53.7 mL/min/kg. The EC50 (human mGluR4) was 268 nM, the Human CLINT [3] was 7.44 mL/min/kg and the “Human CLHEP” value [3] was 5.49 mL/min/kg. For the same compound, the fraction unbound [4] was 0.085 and the fraction unbound [5] was 0.328.
With `CN(C(=O)c1nccc2cc(Nc3n[nH]c4ncccc34)ccc12)C1CC(F)(F)C1` [Compound 24] the EC50 (mGlu4) was 1240 nM.
In the case of `COC1CC(NC(=O)c2nccc3cc(Nc4n[nH]c5cccnc45)ccc23)C1` (centres unmarked) [Example 10], the fraction unbound [1] is reported as 0.059, the Rat CLINT [2] is reported as 26.7 mL/min/kg and the Rat CLHEP [2] is reported as 19.3 mL/min/kg. For the same compound, the EC50 (human mGluR4) was 25.5 nM, the Human CLINT [3] was 10.2 mL/min/kg and the “Human CLHEP” value [3] was 6.86 mL/min/kg. It also gave a fraction unbound [4] of 0.082 and a fraction unbound [5] of 0.089.
Compound `O=C(NC1CC(F)C1)c1nccc2cc(Nc3n[nH]c4cccnc34)ccc12` (centres unmarked) [Example 8] has a fraction unbound [1] of 0.11, a Rat CLINT [2] of 32.4 mL/min/kg and a Rat CLHEP [2] of 22.2 mL/min/kg. For the same compound, the EC50 (human mGluR4) was 21 nM, the Human CLINT [3] was 6.61 mL/min/kg and the “Human CLHEP” value [3] was 5.03 mL/min/kg. For the same compound, the fraction unbound [4] was 0.02 and the fraction unbound [5] was 0.107.
Work on `O=C(c1nccc2cc(Nc3n[nH]c4cccnc34)ccc12)N1CC[C@H](F)C1` [Example 5] yielded a fraction unbound [1] of 0.094, a Rat CLINT [2] of 32.5 mL/min/kg and a Rat CLHEP [2] of 22.2 mL/min/kg. The EC50 (human mGluR4) was 366 nM, the Human CLINT [3] was 6.91 mL/min/kg and the “Human CLHEP” value [3] was 5.20 mL/min/kg. For the same compound, the fraction unbound [4] was 0.095 and the fraction unbound [5] was 0.327.
`O=C(c1nccc2cc(Nc3n[nH]c4cccnc34)ccc12)N1CCCC(F)(F)C1` [Example 4] gave a fraction unbound [1] of 0.015, a Rat CLINT [2] of 885 mL/min/kg and a Rat CLHEP [2] of 64.9 mL/min/kg. The EC50 (human mGluR4) was 117 nM, the Human CLINT [3] was 172 mL/min/kg and the “Human CLHEP” value [3] was 18.7 mL/min/kg. It also gave a fraction unbound [4] of 0.05 and a fraction unbound [5] of 0.158.
With `CN(C(=O)c1nccc2cc(Nc3n[nH]c4cccnc34)ccc12)C1CCOC1` (centres unmarked) [Compound 26] the EC50 (mGlu4) was 1850 nM.
`O=C(NC1CC(F)(F)C1)c1nccc2cc(Nc3n[nH]c4cccnc34)ccc12` [Example 9] showed a fraction unbound [1] of 0.09, a Rat CLINT [2] of 32.8 mL/min/kg and a Rat CLHEP [2] of 22.3 mL/min/kg. For the same compound, the EC50 (human mGluR4) was 9.91 nM, the Human CLINT [3] was 9.01 mL/min/kg and the “Human CLHEP” value [3] was 6.30 mL/min/kg. For the same compound, the fraction unbound [4] was 0.01 and the fraction unbound [5] was 0.076.
Work on `O=C(c1nccc2cc(Nc3n[nH]c4cccnc34)ccc12)N1CCC(F)(F)CC1` [Example 7] yielded a fraction unbound [1] of 0.094, a Rat CLINT [2] of 568 mL/min/kg and a Rat CLHEP [2] of 62.3 mL/min/kg. The EC50 (human mGluR4) was 57.7 nM, the Human CLINT [3] was 87.4 mL/min/kg and the “Human CLHEP” value [3] was 16.9 mL/min/kg. It also gave a fraction unbound [4] of 0.055 and a fraction unbound [5] of 0.168.
Work on `CN(C(=O)c1nccc2cc(Nc3n[nH]c4cccnc34)ccc12)C1CC(F)C1` (centres unmarked) [Compound 20] yielded an EC50 (mGlu4) of 546 nM.
Work on `CN(C(=O)c1nccc2cc(Nc3n[nH]c4cccnc34)ccc12)C1CC(F)(F)C1` [Compound 23] yielded an EC50 (mGlu4) of 339 nM.
Work on `O=C(c1nccc2cc(Nc3n[nH]c4ncccc34)ccc12)N1CCC(F)(F)CC1` [Example 28] yielded a fraction unbound [1] of 0.218, a Rat CLINT [2] of 328 mL/min/kg and a Rat CLHEP [2] of 57.7 mL/min/kg. For the same compound, the EC50 (human mGluR4) was 511 nM, the Human CLINT [3] was 83.4 mL/min/kg and the “Human CLHEP” value [3] was 16.8 mL/min/kg. For the same compound, the fraction unbound [4] was 0.028 and the fraction unbound [5] was 0.179.
With `CN(C(=O)c1nccc2cc(Nc3n[nH]c4ncccc34)ccc12)C1CCOC1` (centres unmarked) [Compound 25] the EC50 (mGlu4) was 4370 nM.
With `CN(C(=O)c1nccc2cc(Nc3n[nH]c4ncccc34)ccc12)C1CC(F)C1` (centres unmarked) [Compound 22] the EC50 (mGlu4) was 1800 nM.
With `O=C(NC1CCOC1)c1nccc2cc(Nc3n[nH]c4cccnc34)ccc12` (centres unmarked) [Example 11] the fraction unbound [1] was 0.188, the Rat CLINT [2] was 2.82 mL/min/kg and the Rat CLHEP [2] was 2.71 mL/min/kg. For the same compound, the EC50 (human mGluR4) was 59.9 nM, the Human CLINT [3] was 0.63 mL/min/kg and the “Human CLHEP” value [3] was 0.61 mL/min/kg. The fraction unbound [4] was 0.068 and the fraction unbound [5] was 0.229.
In the case of `O=C(NC1CC(F)(F)C1)c1nccc2cc(Nc3n[nH]c4ncccc34)ccc12` [Example 27], the fraction unbound [1] is reported as 0.073, the Rat CLINT [2] is reported as 37 mL/min/kg and the Rat CLHEP [2] is reported as 24.2 mL/min/kg. For the same compound, the EC50 (human mGluR4) was 56.2 nM, the Human CLINT [3] was 7.64 mL/min/kg and the “Human CLHEP” value [3] was 5.60 mL/min/kg. The fraction unbound [4] was 0.009 and the fraction unbound [5] was 0.075.

Reference: patent US10710997B2, “Isoquinoline amide and isoquinoline amide-substituted compounds as mGluR4 allosteric potentiators, compositions, and methods of treating neurological dysfunction” (Vanderbilt University, priority 2016, dated 2020)
